Marks after values point to notes of the source that are not given here.
Columns and labels:
Type in all cases: cell-based, human
[1] = test system: platelets; assay: Conventional platelet aggregation in PRP induced by 1 μg/ml collagen; settings: for Platelet Aggregation (%), Collagen 1 μg/mL: Mean ± SD
Method: (§1) The methodology employed was conventional aggregation induced by 5 μM ADP, 1 μg/ml collagen, 10 μM TRAP, whole blood aggregation with 1 μg/ml collagen, Ultegra, and PFA-100 Analyzers, expression of 14 intact, and TRAP-stimulated major receptors by whole blood flow cytometry were utilized to assess platelet activity after preincubation with escalating concentrations of E5555 (20 ng/ml, 50 ng/ml, and 100 ng/ml). The experiments were performed in healthy volunteers, CAD patients treated with ASA, and CAD patients treated with ASA and clopidogrel combination (n=10, for each group).
(§2) An Informed Consent was obtained from all volunteers. Drug users were excluded from data analysis. The study was approved by Quorum Institutional Review Board. All subjects underwent blood sampling after at least 30 minutes of rest and two or more hours of fasting. Blood (28 ml) was drawn between 8 and 10 a.m. in order to avoid any diurnal influence and sampled from an antecubital vein using a 21-gauge butterfly needle containing 3.2% sodium citrate (1:9 volume) after having discarded the first 1.5 ml of free running blood. Four Vacutainer tubes (7.0 ml) were collected for a total of 28 ml of whole blood-citrate mixture from each study participant. Chronologically, blood samples were delivered to the core laboratory facility within 45 minutes after drawing. Then all tubes of blood-citrate mixture were pooled. One portion of pooled blood (5 ml) was kept as an internal control and pretreated with the vehicle. The remaining blood (23 ml) was used for the in vitro exposure to E5555 at concentrations of 20 ng/ml, 50 ng/ml, and 100 ng/ml. […] The platelet aggregation studies, Rapid Analyzers measures, and flow cytometry preparations were initiated within no more than 110 minutes following the blood draw, incubation with the drug, and preparation of the samples.
Platelet counts were determined in each PRP sample with a Coulter Counter ZM (Coulter Co., Hialeah, Fla.). Platelet numbers were adjusted to 3.50×10^8/ml for aggregation using homologous platelet-poor plasma. Platelet aggregation was stimulated with 5 μM ADP, 1 μg/ml collagen, or 10 μM TRAP. All agonists were obtained from Chronolog Corporation (Havertown, Pa.) and Sigma (St. Louis, Miss.). Platelet aggregation experiments were performed using a Chrono-Log Lumi-Aggregometer (model 560-Ca). Aggregation curves were recorded for 4 minutes and analyzed according to internationally established standards using Aggrolink® software. Platelet aggregability was expressed as the percentage of light transmittance change from baseline using platelet-poor plasma as a reference.

[2] = test system: platelets; assay: Platelet Function Analyzer PFA-100, ADP/Collagen cartridge; settings: for Closure time (s): recording limit 300 s
Method: as §1, §2
Whole blood aggregation was determined using a Chronolog device 592A. The whole blood-citrate mixture was diluted 1:1 with 0.5 ml phosphate buffered saline and gently swirled. The sample then was allowed to warm to 37° C. for 5 minutes then transferred to the assay well. The electrode was then placed in the cuvette and the sample was stimulated with 1 μg/ml collagen. The change in electrical impedance was digitally recorded. Each whole blood sample was analyzed utilizing 2 different clinical devices: • (1) a Rapid Platelet-Function Assay (Ultegra®) (Accumetrics, Inc., San Diego, Calif.), which is a rapid platelet-function assay aspirin cartridge test with TRAP used as agonist. Polystyrene beads coated with fibrinogen are placed in a cartridge along with the peptide that activates thrombin receptor. Anticoagulated whole blood was added to the cartridge, and agglutination between platelets and coated beads was recorded. The data mirrors turbidimetric platelet aggregation and presumably reflects platelet glycoprotein IIb/IIIa blockade. Ultegra RPFA-TRAP Assay results were reported as Platelet Activation Units (PAU); and • (2) Platelet-Function Analyzer PFA-100 ™ (Dade Behring, Deerfield Ill.), which is a high shear-inducing analyzer that simulates primary hemostasis after injury to a small vessel under flow conditions. The device provides a constant negative pressure that aspirates whole blood, which comes into contact with the collagen, coated membrane and then passes through the aperture. The time required to obtain occlusion of the aperture is digitally recorded. The time to aperture occlusion (the closure time) is recorded in seconds and is inversely related to the degree of shear-induced platelet activation. We used ADP/Collagen cartridges in the index study. Both PFA-100 and Ultegra assays were performed in duplicate. An electronic quality control test was performed on each instrument daily prior to performing any patient samples.

[3] = test system: LAMP-1 (CD107a); assay: TRAP-stimulated whole blood flow cytometry, LAMP-1; settings: Mean ± SD
Method: as §1, §2
Formation of platelet-leukocyte aggregates was assessed by dual labeling with pan-platelet marker (CD151), and then with CD14, the macrophage receptor for endotoxin lipopolysaccharides (PharMingen, and Coulter, San Diego, Calif., USA). The tubes were then covered with aluminum foil and incubated at 37° C. for 40 minutes with gentle rotation. After incubation, samples were immediately analyzed on a Becton Dickinson FACScan flow cytometer. The instrument was set up to measure forward light scatter, and FITC fluorescence. All parameters were collected using four-decade logarithmic amplification. The data was retrieved in list mode files and then analyzed. P selectin was expressed as percent positive cells. Other antigens were expressed as log mean fluorescence intensity.
For flow cytometry (TRAP-stimulated) all of the above flow cytometry experiments were identically repeated utilizing prestimulation with 10 μmol/L TRAP for 5 minutes at 37° C. To determine statistics, a Paired Sign Test was used to define significance of differences between vehicle and E5555-treated groups. The Mann-Whitney U test was used to analyze nonparametric data. Normally distributed data were expressed as mean±standard error (m±SE), and skewed data as median (range). All P-values were two sided. All analysis was performed using the SPSS v9.0 program (SPSS Inc., Chicago, Ill.).

[4] = E5555 20 ng/ml, Patients (ASA + C)
[5] = E5555 50 ng/ml, Patients (ASA + C)
[6] = E5555 100 ng/ml, Patients (ASA + C)
[7] = E5555 100 ng/ml, Patients (ASA)

Br.CCOc1cc2c(c(F)c1OCC)C(=N)N(CC(=O)c1cc(N3CCOCC3)c(OC)c(C(C)(C)C)c1)C2 [E5555, 1-(3-tert-butyl-4-methoxy-5-morpholinophenyl)-2-(5,6-diethoxy-7-fluoro-1-imino-1,3-dihydro-2H-isoindol-2-yl)ethanone hydrobromide]
inhibition of platelet activity, aggregation induced by collagen ([1]; ASA-treated patients with coronary artery disease): 10-12%
collagen-induced aggregation, effect in words ([1]; CAD patients treated with ASA+clopidogrel): moderate inhibition
Platelet Aggregation (%), Collagen 1 μg/mL ([1]; E5555 20 ng/ml, CAD patients treated with ASA + clopidogrel): 20.6 ± 3.2 %
Platelet Aggregation (%), Collagen 1 μg/mL ([1]; E5555 20 ng/ml, CAD patients treated with ASA): 23.9 ± 4.8 %
Platelet Aggregation (%), Collagen 1 μg/mL ([1]; E5555 20 ng/ml, healthy volunteers): 67.6 ± 6.2 %
Platelet Aggregation (%), Collagen 1 μg/mL ([1]; E5555 50 ng/ml, CAD patients treated with ASA + clopidogrel): 24.0 ± 3.3 %
Platelet Aggregation (%), Collagen 1 μg/mL ([1]; E5555 50 ng/ml, CAD patients treated with ASA): 26.1 ± 4.0 %
Platelet Aggregation (%), Collagen 1 μg/mL ([1]; E5555 50 ng/ml, healthy volunteers): 69.1 ± 6.5 %
Platelet Aggregation (%), Collagen 1 μg/mL ([1]; E5555 100 ng/ml, CAD patients treated with ASA + clopidogrel): 21.7 ± 4.2 %
Platelet Aggregation (%), Collagen 1 μg/mL ([1]; E5555 100 ng/ml, CAD patients treated with ASA): 25.7 ± 5.2 %
Platelet Aggregation (%), Collagen 1 μg/mL ([1]; E5555 100 ng/ml, healthy volunteers): 72.8 ± 7.5 %
inhibition of conventional platelet aggregation induced by collagen ([1]; healthy volunteers, E5555 20, 50, and 100 ng/ml): 15-20%
inhibition of collagen-induced platelet aggregation in plasma ([1]; overall summary of the study): 10-15%
Closure time (s) [2, 4]: >300*† s
Closure time (s) ([2]; E5555 20 ng/ml, Patients (ASA)): >300*† s
Closure time (s) ([2]; E5555 20 ng/ml, Volunteers): >300*† s
Closure time (s) [2, 5]: >300*† s
Closure time (s) ([2]; E5555 50 ng/ml, Patients (ASA)): >300*† s
Closure time (s) ([2]; E5555 50 ng/ml, Volunteers): >300*† s
Closure time (s) [2, 6]: >300*† s
Closure time (s) [2, 7]: >300*† s
Closure time (s) ([2]; E5555 100 ng/ml, Volunteers): >300*† s
Platelet Analyzer readings, shear-induced activation, effect in words ([2]; overall summary): reduced shear-induced activation
LAMP-1 (CD107a), Mean Fluorescence Intensity [3, 4]: 4.0 ± 0.8 MFI
LAMP-1 (CD107a), Mean Fluorescence Intensity ([3]; E5555 20 ng/ml, Patients (ASA)): 4.1 ± 0.7 MFI
LAMP-1 (CD107a), Mean Fluorescence Intensity ([3]; E5555 20 ng/ml, Volunteers): 5.9 ± 0.8 MFI
LAMP-1 (CD107a), Mean Fluorescence Intensity [3, 5]: 3.2 ± 1.0 MFI
LAMP-1 (CD107a), Mean Fluorescence Intensity ([3]; E5555 50 ng/ml, Patients (ASA)): 4.0 ± 0.5 MFI
LAMP-1 (CD107a), Mean Fluorescence Intensity ([3]; E5555 50 ng/ml, Volunteers): 4.9 ± 0.4 MFI
LAMP-1 (CD107a), Mean Fluorescence Intensity [3, 6]: 3.0 ± 1.1 MFI
LAMP-1 (CD107a), Mean Fluorescence Intensity [3, 7]: 3.1 ± 0.7 MFI
LAMP-1 (CD107a), Mean Fluorescence Intensity ([3]; E5555 100 ng/ml, Volunteers): 4.7 ± 0.8 MFI

Source: US20100056519A1, “COMPOSITION AND METHOD FOR REDUCING PLATELET ACTIVATION AND FOR THE TREATMENT OF THROMBOTIC EVENTS” (priority 2008, published 2010)
